Measurements as given in patent US5798381A, “Biologically active bistramides, process for their production and their applications in therapy” (Institut Francais de Recherche Scientifique pour le …, priority 1993, dated 1998).
Converted amounts (≈) assume the structure as drawn. Read-outs that look alike come from different tables or passages of the source.

What was measured:
[1] = tested on: mice; test: Acute toxicity (LD50), intravenous injection in mice; assay type: in vivo; conditions: statement in words
Experimental: The LD50 of these bistramides is in fact of the order of 1.7 mg/kg (measured in mice, after injection of the product by intravenous route as a single dose).
The "LD50 " of the products of the invention has been measured for mice after injection of the products by intravenous route.

[2] = tested on: B16; test: Cytotoxicity, 50% inhibition of cell growth, B16; assay type: cell-based; conditions: Mus musculus, B16; read-out: IC50 (50% inhibition of cell growth)
Experimental: (§1) The cytoxicity results are recorded hereafter as the IC50 in μg/ml (concentration corresponding to a 50% inhibition of cell growth) on 6 tumoural lines namely KB, P388, P388/dox (resistant to doxorubicin), B16 and H429 and NSCLC-N6, which are human cells of non-small cell bronchopulmonary carcinoma type.
(§2) The determinations were carried out according to the protocol given in Cancer Chemother. Pharmacol. (1991) 28:283-292 by Roussakis et al.

[3] = tested on: HT 29; test: Cytotoxicity, 50% inhibition of cell growth, HT 29; assay type: cell-based; conditions: Homo sapiens; HT 29; read-out: IC50 (50% inhibition of cell growth)
Experimental: as §1, §2

[4] = tested on: NSCLC.N6-L16; test: Cytotoxicity, 50% inhibition of cell growth, NSCLC-N6; assay type: cell-based; conditions: Homo sapiens; NSCLC.N6-L16; read-out: IC50 (50% inhibition of cell growth)
Experimental: as §1, §2

[5] = tested on: NSCLC solid tumours (xenograft); assay type: in vivo, nude mouse; conditions: at the end of 30 days
Experimental: The anti-tumoural activity of the products of the invention was studied against solid tumours of NSCLC type grafted onto a nude mouse (D. Riou, C. Roussakis, J. F. Biard, J. F. Verbist: "Comparative study of antitumor activity of bistramides A, D and K against non-small cell bronchopulmonary carcinoma", Anticancer Research, 1993, 13, 2321-2334). Each mouse received 0.2 ml of a cell solution obtained by the mechanical dispersion of about 1 g of excised mouse tumour in 4.8 ml of a sterile saline solution. The sub-cutaneous grafted tumours were measured over their long length L and their short length 1. The tumoural volume was evaluated according to the formula Vt=L×1^2 /2. The tumoural growth on day d was calculated by the formula Vtd /Vtd0 for each mouse, Vtd0 being the tumoural volume at the start of treatment.
The curve "------.circle-solid.------ " relates to the control experiment, the curves "--- .diamond-solid.---", "-- .quadrature.--" and "-- .box-solid.--" to experiments with 10, 20 and 5 mg/kg of bistramide D respectively and the curve "----*----" to an experiment with 10 mg/kg of bistramide K. Each point represents the average tumoural growth for 6 mice.
In these experiments, bistramide K is injected at the rate of 10 mg/kg by intraperitoneal route for 16 days and bistramide D at the rate of 5 mg/kg by intraperitoneal route every day for 16 days; at 10 mg/kg by intravenous route on days 1, 5, 9, 14, and at 20 mg/kg by intravenous route on days 1, 5, 9, 14.

[6] = tested on: L.(L) donovani; test: Anti-leishmanial activity in vitro; assay type: cell-based; conditions: 500 μg/ml
[7] = tested on: Plasmodium vinckei petteri; test: PETERS test (4-day anti-malarial test in mice); assay type: in vivo, Plasmodium vinckei petteri in SWISS female white mice; conditions: 15 mg/kg/day, 4 days, sub-cutaneous; for percentage inhibition of parasitemia: D4
Experimental: The animals used are SWISS (IFFA CREDO) female white mice weighing approximately 30 grams. Five mice are distributed per batch.
The species Plasmodium vinckei petteri used comes from the strain 279 BY (see article by Cambie G et al. in CR.Acad.Sci.PARIS 310, series III, 183-188). This plasmodia carries out a schizogonic cycle in 24 hours in a synchronous fashion. Using the freezing-thawing technique for infected blood, only the merozoite stage resists, the other forms being destroyed.
Observation of blood parasites takes place on stained smears carried out by taking a drop of blood from the tail. The smears are then stained with May-Grumwald-Giesma. Calculation of the parasitemia (number of parasites per 100 red blood corpuscles) is carried out on smears.
In these trials bistramide D is used in sterile physiological water containing 5% DMSO.
The product is injected by sub-cutaneous route in the thigh.
In order to verify the activity of the compound studied, the PETERS test is used which constitutes the reference for the screening of molecules with anti-malarial activity. (PETERS W. 1980. Chemotherapy and Drug resistance in Malaria, vol II, Academic Press).
After treatment for 4 days, the percentage of red blood corpuscles parasitized is compared on thin smears between the control batch and the treated batch. In this way a percentage inhibition is established. […]
a) injection of 10^7 of parasitized red blood corpuscles by I.P. route (D0) b) injection of Bistramide D at 15 mg/kg/day, for 4 days by sub-cutaneous route (D0, D1. D2, D3) c) checking the parasitemia on smears on D4

[8] = tested on: Plasmodium vinckei petteri; test: Flow cytometry study of parasitized murine red blood corpuscles; conditions: G1 phase, maturation stage
Excerpt: The consequence of this is to halt the proliferation at the middle and old trophozoite stage.

C/C=C/C(O)CC1CCC(C)C(CC(=O)NCC(O)C(C)C(=O)NCCCC2OC3(CCCC(CCC(C)/C=C(\C)C(C)O)O3)CCC2C)O1 (stereo not drawn) [Bistramide D]
toxicity in vivo [1]: less toxic | IC50 [2]: 0.1 µg/mL (≈ 0.141 µM) | IC50 [3]: 2.76 µg/mL (≈ 3.9 µM) | IC50 [4]: 3.43 µg/mL (≈ 4.85 µM) | tumoural growth relative to controls (100%) ([5]; 5 mg/kg, IP, every day for 16 days): 100% | tumoural growth relative to controls (100%) ([5]; 10 mg/kg, IV, days 1, 5, 9, 14): 76% | tumoural growth relative to controls (100%) ([5]; 20 mg/kg, IV, days 1, 5, 9, 14): 53% | anti-leishmanial activity [6]: has an anti-leishmanial activity in vitro | percentage inhibition of parasitemia ([7]; trial A): 85% | parasitemia, treated batch on D4 ([7]; trial A, controls 4%): 0.64% | percentage inhibition of parasitemia ([7]; trial B): 87% | parasitemia, treated batch on D4 ([7]; trial B, controls 4%): 0.50% | percentage inhibition of parasitemia ([7]; trial C): 81% | parasitemia, treated batch on D4 ([7]; trial C, controls 1.2%): 0.23% | blocking of the parasite / of parasitic proliferation [8]: partial blocking of the parasite at its maturation stage
